Measured values from patent US20070093476A1, “Novel compounds and their use in medicine,as antidiabetic and hypolipidemic agents, process for their preparation and pharmaceutical compositions containing them” (priority 2003, published 2007).
Structures can show the parent of a compound that is named as a salt. Where two headings read alike, the source gives them in different places.

What was measured:
Swiss albino mice = experiment: Plasma triglyceride lowering activity in Swiss albino mice; format: in vivo
Method: b) Plasma Triglyceride and Total Cholesterol Lowering Activity in Swiss Albino Mice and Guinea Pigs
Male Swiss albino mice (SAM) and male Guinea pigs are obtained from NIN and housed in DRF animal house. All these animals are maintained under 12 hour light and dark cycle at 25±1° C. Animals are given standard laboratory chow (NIN, Hyderabad, India) and water, ad libitum. SAM of 20-25 g body weight range and Guinea pigs of 500-700 g body weight range are used (Oliver, P., Plancke, M. O., Marzin, D., Clavey, V., Sauzieres, J and Fruchart, J. C. Effects of fenofibrate, gemfibrozil and nicotinic acid on plasma lipoprotein levels in normal and hyperlipidemic mice. Atherosclerosis. 1988. 70 : 107-114).
The test compounds can be administered orally to Swiss albino mice at 0.3 to 30 mg/kg/day dose for 6 days. Control mice are treated with vehicle (0.25% Carboxymethylcellulose; dose 10 ml/kg). The test compounds are administered orally to Guinea pigs at 0.3 to 30 mg/kg/day dose for 6 days. Control animals are treated with vehicle (0.25% Carboxymethylcellulose; dose 5 ml/kg).
The blood samples can be collected in fed state 1 hour after drug administration on 0 and 6 day of treatment. The blood can be collected from the retro-orbital sinus through heparinised capillary in EDTA containing tubes. After centrifugation, plasma sample was separated for triglyceride and total cholesterol (Wieland, O. Methods of Enzymatic analysis. Bergermeyer, H. O., Ed., 1963. 211-214; Trinder, P. Ann. Clin. Biochem. 1969. 6 : 24-27). Measurement of plasma triglyceride, total cholesterol and HDL are done using commercial kits (Dr. Reddy's Diagnostic Division, Hyderabad, India).

hPPARα = target: T1, hPPARα (Homo sapiens, UniProt Q07869); experiment: Determination of hPPARα activity (GAL4-LBD luciferase reporter transactivation in HEK-293 cells); format: cell-based; conditions: 50 μM compound
T1 construct: expressed in transfected cells; host or cells: HEK-293
T1 sequence (Q07869 239-466 limits assumed): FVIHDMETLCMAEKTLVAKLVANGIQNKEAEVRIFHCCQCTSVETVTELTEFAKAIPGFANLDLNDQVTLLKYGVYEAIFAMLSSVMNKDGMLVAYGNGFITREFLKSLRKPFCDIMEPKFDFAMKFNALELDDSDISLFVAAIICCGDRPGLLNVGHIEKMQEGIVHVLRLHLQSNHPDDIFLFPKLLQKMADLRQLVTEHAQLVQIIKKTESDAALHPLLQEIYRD
Method: a) Determination of hPPARα Activity Ligand binding domain of hPPARα was fused to […] of Yeast transcription factor GAL4 in eucaryotic expression vector. Using superfect (Qiagen, Germany) as transfecting reagent HEK-293 cells are transfected with this plasmid and a reporter plasmid harboring the luciferase gene driven by a GAL4 specific promoter. Compound can be added at different concentrations after 42 hrs of transfection and incubated overnight. Luciferase activity as a function of compound binding/activation capacity of PPARα will be measured using Packard Luclite kit (Packard, USA) in Top Count (Ivan Sadowski, Brendan Bell, Peter Broag and Melvyn Hollis. Gene. 1992. 118 : 137-141; Superfect Transfection Reagent Handbook. February 1997. Qiagen, Germany).

hPPARγ1 = target: T2, hPPARγ1 (Homo sapiens, UniProt P37231); experiment: Determination of hPPARγ activity (GAL4-LBD luciferase reporter transactivation in HEK-293 cells); format: cell-based; conditions: 1 μM compound
T2 construct: expressed in transfected cells; host or cells: HEK-293
T2 sequence (P37231 238-503 limits assumed): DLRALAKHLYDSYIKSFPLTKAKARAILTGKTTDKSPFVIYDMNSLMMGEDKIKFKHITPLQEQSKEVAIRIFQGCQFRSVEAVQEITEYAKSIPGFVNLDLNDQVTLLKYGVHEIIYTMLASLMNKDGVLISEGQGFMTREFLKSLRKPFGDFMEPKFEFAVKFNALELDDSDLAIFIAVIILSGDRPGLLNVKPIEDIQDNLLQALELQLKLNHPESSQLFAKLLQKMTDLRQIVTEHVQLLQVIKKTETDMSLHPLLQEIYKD
Method: b) Determination of hPPARγ Activity
Ligand binding domain of hPPARγ1 is fused to DNA binding domain of Yeast transcription factor GAL4 in eucaryotic expression vector. Using lipofectamine (Gibco BRL, USA) as transfecting reagent HEK-293 cells are transfected with this plasmid and a reporter plasmid harboring the luciferase gene driven by a GAL4 specific promoter. Compound can be added at 1 μM concentration after 48 hrs of transfection and incubated overnight Luciferase activity as a function of drug binding/activation capacity of PPARγ1 will be measured using Packard Luclite kit (Packard, USA) in Packard Top Count (Ivan Sadowski, Brendan Bell, Peter Broag and Melvyn Hollis. Gene. 1992. 118 : 137-141; Guide to Eukaryotic Transfections with Cationic Lipid Reagents. Life Technologies, GIBCO BRL, USA).

[1] = Mus musculus, po, 144 h, read-out: % of Reduction in Triglyceride
[2] = Swiss albino mice, 3 mg/kg/d oral, 6 days
[3] = Mus musculus, 144 h, Swiss albino mice, 3 mg/kg/d oral, 6 days, read-out: % of Reduction in Triglyceride

Row | Compound | melting point [°C] | further results
1 | CCOC(Cc1ccc(NCCCn2ccc3ccccc32)cc1)C(=O)O (centres unmarked) (as salt: salt) [Example 47, 2-Ethoxy-3-[4-{3-(indol-1-yl)propylamino}phenyl]propanoic acid Arginine salt] | 130 | 
2 | CCOC(Cc1ccc(NCCCN2CCc3ccccc32)cc1)C(=O)O (centres unmarked) (as salt: salt) [Example 52, 2-Ethoxy-3-[4-{3-2,3-dihydroindol-1-yl)propylamino}phenyl]propanoic acid Arginine salt] | 130 to 132 | 
3 | CC(C)(C)OC(=O)Nc1ccc(OCCCc2ccc(OC(C)(C)C(=O)O)cc2)cc1 [Example 96, 2-Methyl-2-[4-{3-(4-(tert-butyloxycarbonylamino)phenoxy)propyl}phenoxy]propanoic acid] | 132 to 134 | 
4 | CCOC(Cc1ccc(NCCCN2CCCc3ccccc32)cc1)C(=O)O (centres unmarked) [Example 55, 2-Ethoxy-3-[4-{3-1,2,3,4-tetrahydroquinolyn-1-yl)propylamino}phenyl]propanoic acid Arginine salt] |  | inhibition in vivo at 3 mg/kg/day (Swiss albino mice; [1]): 60%; PPAR fold activation, PPAR α at 50 μM concentration (hPPARα): 3.8 fold; PPAR fold activation, PPAR γ at 1 μM concentration (hPPARγ1): 11.9 fold
5 | CCOC(CCCc1ccc(NCc2ccc3cc(OS(C)(=O)=O)ccc3c2)cc1)C(=O)O (centres unmarked) [Example 46, 2-Ethoxy-5-[4-{6-methanesulfonyloxynapth-2-ylmethylamino}phenyl]pentatonic acid Arginine salt] |  | inhibition in vivo at 10 mg/kg/day (Swiss albino mice; [1]): 12%; PPAR fold activation, PPAR α at 50 μM concentration (hPPARα): 3.2 fold; PPAR fold activation, PPAR γ at 1 μM concentration (hPPARγ1): 2.1 fold
6 | CCOC(CCCc1ccc(NCc2ccc3cc(OS(C)(=O)=O)ccc3c2)cc1)C(=O)O (centres unmarked) (as salt: salt) [Example 46, 2-Ethoxy-5-[4-{6-methanesulfonyloxynapth-2-ylmethylamino}phenyl]pentatonic acid Arginine salt] | 118 to 120 | 
7 | 2-Methyl-2-[3-{3-(4-methanesulfonyloxyphenoxy)propyloxy}phenoxy]propanoic acid Arginine salt [Example 66] |  | % of Reduction in Triglyceride (Swiss albino mice; [2]): 71%
8 | CCOC(=O)C(C)(C)Oc1ccc(NCc2ccc3cc(OS(C)(=O)=O)ccc3c2)cc1 [Example 4, Ethyl 2-methyl-2-[4-{6-methanesulfonyloxynapth-2-ylmethylamino}phenoxy]propanoate] | 116 to 118 | 
9 | CCOC(Cc1ccc(NCCCC2CCc3cc(OS(C)(=O)=O)ccc3C2)cc1)C(=O)O (centres unmarked) [Example 54, 2-Ethoxy-3-[4-{3-(6-methanesulfonyloxy-1,2,3,4-tetrahydronapth-2-yl)propylamino}phenyl]propanoic acid Arginine salt] |  | inhibition in vivo at 3 mg/kg/day (Swiss albino mice; [1]): 43%
10 | CCOC(Cc1ccc(NCCCN2CCCc3ccccc32)cc1)C(=O)O (centres unmarked) (as salt: salt) [Example 55, 2-Ethoxy-3-[4-{3-1,2,3,4-tetrahydroquinolyn-1-yl)propylamino}phenyl]propanoic acid Arginine salt] | 134 to 136 | 
11 | CCOC(=O)[C@H](Cc1ccc(NCc2ccc3cc(OS(C)(=O)=O)ccc3c2)cc1)OC [Example 1, (S)-Ethyl 2-methoxy-3-[4-(6-methanesulfonyloxynapth-2-ylmethylamino)phenyl]propanoate] | 94 to 96 | PPAR fold activation, PPAR α at 50 μM concentration (hPPARα): 2.7 fold; PPAR fold activation, PPAR γ at 1 μM concentration (hPPARγ1): 9.2 fold
12 | CCOC(Cc1ccc(NCCCN2CCc3ccccc32)cc1)C(=O)O (centres unmarked) [Example 52, 2-Ethoxy-3-[4-{3-2,3-dihydroindol-1-yl)propylamino}phenyl]propanoic acid Arginine salt] |  | PPAR fold activation, PPAR α at 50 μM concentration (hPPARα): 4.0 fold; PPAR fold activation, PPAR γ at 1 μM concentration (hPPARγ1): 6 fold
13 | CCOC(Cc1ccc(NCCCC2CCc3cc(OS(C)(=O)=O)ccc3C2)cc1)C(=O)O (centres unmarked) (as salt: salt) [Example 54, 2-Ethoxy-3-[4-{3-(6-methanesulfonyloxy-1,2,3,4-tetrahydronapth-2-yl)propylamino}phenyl]propanoic acid Arginine salt] | 115 to 117 | 
14 | CO[C@@H](Cc1ccc(NCCCn2ccc3ccccc32)cc1)C(=O)O (as salt: salt) [Example 48, (S)-2-Methoxy-3-[4-{3-(indol-1-yl)propylamino}phenyl]propanoic acid Arginine salt] | 105 | 
15 | CCO[C@@H](Cc1ccc(NCCCn2ccc3cc(OS(C)(=O)=O)ccc32)cc1)C(=O)O (as salt: salt) [Example 49, (S)-2-Ethoxy-3-[4-{3-(5-methanesulfonyloxyindol-1-yl)propylamino}phenyl]propanoic acid Arginine salt] | 102 to 104 | 
16 | CC(C)(Oc1cccc(CCCOc2ccc(OS(C)(=O)=O)cc2)c1)C(=O)O [Example 42, 2-Methyl-2-[3-{3-(4-methanesulfonyloxyphenoxy)propyl}phenoxy]propanoic acid] | 93 to 95 | 
17 | CC(C)(Oc1ccc(CCCOc2ccc(NS(C)(=O)=O)cc2)cc1)C(=O)O [Example 97, 2-Methyl-2-[4-{3-(4-(methanesulfonylamino)phenoxy)propyl}phenoxy]propanoic acid] | 122 to 124 | 
18 | CC(C)(Oc1ccc(CCCOc2ccc(-c3ccccc3)cc2)cc1)C(=O)O [Example 63, 2-{4-[3-(Biphenyl-4-yloxy)-propyl]-phenoxy}-2-methyl-propanoic acid] | 130 to 133 | 
19 | 2-Methyl-2-[3-{3-(3-methanesulfonyloxyphenoxy)propyloxy}phenoxy]propanoic acid Arginine salt [Example 61] |  | % of Reduction in Triglyceride (Swiss albino mice; [2]): 51%
20 | CCOC(Cc1ccc(NCC2CCc3cc(OS(C)(=O)=O)ccc3C2)cc1)C(=O)O (centres unmarked) (as salt: salt) [Example 53, 2-Ethoxy-3-[4-{(6-methanesulfonyloxy-1,2,3,4-tetrahydronapth-2-yl)methylamino}phenyl]propanoic acid Arginine salt] | 96 to 98 | 
21 | CC(C)(Oc1ccc(NCc2ccc3cc(OS(C)(=O)=O)ccc3c2)cc1)C(=O)O [Example 26, 2-Methyl-2-[4-(6-methanesulfonyloxynapth-2-ylmethylamino}phenoxy]propanoic acid] | 182 to 184 | inhibition in vivo at 3 mg/kg/day (Swiss albino mice; [3]): 10%
22 | CO[C@@H](Cc1ccc(NCCCn2ccc3cc(OS(C)(=O)=O)ccc32)cc1)C(=O)O (as salt: salt) [Example 50, (S)-2-Methoxy-3-[4-{3-(5-methanesulfonyloxyindol-1-yl)propylamino}phenyl]propanoic acid Arginine salt] | 102 to 104 | 
23 | CC(C)(Oc1ccc(OCc2ccc3cc(OS(C)(=O)=O)ccc3c2)cc1)C(=O)O [Example 37, 2-Methyl-2-[4-{6-methanesulfonyloxynapth-2-ylmethoxy}phenoxy]propanoic acid] | 147 to 149 | inhibition in vivo at 3 mg/kg/day (Swiss albino mice; [3]): 30%
